Bounds are passed on as bounds.

The target of the test is T1, Fructose-bisphosphate aldolase (Mycobacterium tuberculosis (strain ATCC 25618 / H37Rv), UniProt P9WQA3).
T1 sequence (P9WQA3 whole entry): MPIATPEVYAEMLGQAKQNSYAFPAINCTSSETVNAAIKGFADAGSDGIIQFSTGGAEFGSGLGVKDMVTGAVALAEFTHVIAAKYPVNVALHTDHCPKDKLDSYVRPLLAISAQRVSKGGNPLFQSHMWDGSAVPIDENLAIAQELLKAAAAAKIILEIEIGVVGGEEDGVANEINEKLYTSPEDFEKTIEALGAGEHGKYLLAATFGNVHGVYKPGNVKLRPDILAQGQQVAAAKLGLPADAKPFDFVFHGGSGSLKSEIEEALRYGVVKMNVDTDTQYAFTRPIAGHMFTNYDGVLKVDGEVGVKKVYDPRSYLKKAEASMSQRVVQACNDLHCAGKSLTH

As usually defined, the IC50 is the concentration at which inhibition is half-maximal. A lower IC50 goes with higher potency. `O=C(NCc1cccc(Cl)c1)C1=C2NS(=O)(=O)C=CN2C=CC1` [MLS002162417] yielded an IC50 of 2.61 µM.

As to `N#CC1=C(C2CC2)CC(c2ccccc2)C(C#N)C1=N` (configuration not stated) [SMR000039375], the IC50 was above 10 µM.

The values are drawn from BindingDB's records for doi:10.7270/Q25719N6 (The Scripps Research Institute Molecular Screening Center, 2013).
